Measured values reported in patent US20200354426A1 (MEDIMMUNE LIMITED, priority 2016, published 2020).
Numbered stars: 1 amine (or outer) side, 2 acyl side, 3 side chain; on linkers, the order of the positions; unused ones are H or OH. Side chains are listed from the residue outwards. Peptide text beside a SMILES is read from it. * marks the point of attachment. γGlu = O=C(O)[C@H](CCC(=O)[*:2])N[*:1]; Palmitoyl = CCCCCCCCCCCCCCCC(=O)*

Experiments:
[1] = biological target: T1, Human GLP1R (Homo sapiens, UniProt P43220); assay: cell-based
[2] = biological target: T1, Human GLP1R; assay: cAMP activity assay in assay medium (assay 1); assay type: cell-based; parameters: expressed in transfected cells; details: assay medium
Excerpt: Biological Activity of Peptides in Cell-Based cAMP Activity Assay (Assay 1):
All sample dilutions were made in duplicate.

[3] = test system: overweight or obese subjects with type 2 diabetes mellitus; assay: Phase 1/2 multiple-ascending-dose study of G933, Cohorts 1-6 (efficacy, PK, safety); assay type: in vivo, human
Excerpt: Approximately 75 overweight or obese subjects with relatively well controlled type 2 diabetes mellitus (T2DM) are enrolled to participate in the study. The enrolled subjects meet the following inclusion and exclusion criteria.
Exclusion Criteria: • Any condition that would interfere with evaluations of the investigational product or interpretation of subject safety or study results. […] Patients who utilize benzodiazepines for chronic anxiety or sleep disorders may be permitted to enter the study; • History of severe allergy/hypersensitivity or ongoing clinically important allergy/hypersensitivity; • Whole blood or red blood cell donation, or any blood loss >500 mL during the 2 months prior to screening; • Received another new chemical entity (defined as a compound that has not been approved for marketing), or has participated in any other clinical study that included drug treatment within at least 30 days or 5 half-lives prior to the first administration of investigational product in this study (whichever is longer). The period of exclusion to begin 30 days or 5 half-lives of investigational product after the final dose, or after the last visit, whichever is longest.
Part A consists of 3 cohorts.
Part B consists of 1 cohort.
The initial dose is 100 μg.
Approximately 32 overweight or obese subjects with relatively well controlled type 2 diabetes mellitus (T2DM) are enrolled to participate in the study. The enrolled subjects meet the inclusion and exclusion criteria described in Example 5 with the following exceptions:
Inclusion Criteria: • Cohort 5 and 6 subjects must be willing and able to self-administer daily subcutaneous (SC) injections following an initial self-injection of placebo (or normal saline) during the screening period.
Exclusion Criteria: • Abnormal vital signs, after 10 minutes of supine rest, are defined as any of the following: (a) If systolic BP<90 mm Hg or ≥140 mm Hg; (b) Diastolic BP<50 mm Hg or ≥90 mm Hg; or (c) HR<45 or >85 bpm; • Unstable angina pectoris or stable angina pectoris classified higher than Canadian Cardiovascular Society class II or any previous medical history of myocardial infarction or stroke, or a history of a transient ischemic attack within the prior 12 months.
A randomized, double-blind, multiple-ascending dose study is performed. This study consists of 2 cohorts: cohort 5 and cohort 6. […] Cohorts 5 and 6 have approximately 32 subjects total and are run in parallel.
The study consists of an inpatient up-titration evaluation period beginning on Day 3 for both Cohorts 5 and 6 and an outpatient follow-up period. The first 4 days and the final day of dosing at 300 μg […].
Subjects are admitted to the clinic as described in Example 5 for Cohorts 1-4. […] Subjects have a second inpatient period for the initiation of the 300 μg dose ending on the fourth day at that dose followed by at-home self administration.
Additional time points include before commencing the 300 μg dose (Day 16 for Cohort 5 and Day 11 for Cohort 6) and at the end of dosing (Day 22 for Cohort 5 and Day 17 for Cohort 6). The MMT are performed as described in Example 5.

[4] = test system: diet induced obesity (DIO) mouse model; assay: Diet induced obesity (DIO) mouse model, study B; assay type: in vivo; details: for HOMA / BeHy / FGF21 / Hepatic TG / Plasma Cholesterol / Plasma TG: day 14
Excerpt: Female C57/B16JHsdOla (obtained from Harlan Laboratories. UK) were started on a high fat diet of D12492 (Research Diets, NJ, USA) and a chocolate confection, delicato ball (Delicata Bakverk, Sweden) at 9-11 weeks of age, and were maintained on the diet for 16 weeks prior to arrival to the animal facility, during a three week acclimation period and during drug treatment, caloric content of the two components of the diet is shown in Table 11. The mice were divided into 9 groups (n=5-6), and treatment was started at 29 weeks of age.
The body weight of the animals was monitored daily throughout the dosing period. At day 14, blood samples for the measurement of plasma glucose and insulin from conscious mice were obtained after a 4-hour fasting period. Mice were then anaesthetized using isoflourane and terminal blood was collected from the capillary bed behind the eye. The following parameters were measured: blood chemistry measurements of triglycerides, total cholesterol, non-esterified fatty acids (NEFA), beta-hydroxybutyrate and fibroblast growth factor 21 (FGF21) (Table 16 and Table 17 below).

[5] = Cohort 4, after 41 days, p<0.001

T1 sequence (P43220 24-463): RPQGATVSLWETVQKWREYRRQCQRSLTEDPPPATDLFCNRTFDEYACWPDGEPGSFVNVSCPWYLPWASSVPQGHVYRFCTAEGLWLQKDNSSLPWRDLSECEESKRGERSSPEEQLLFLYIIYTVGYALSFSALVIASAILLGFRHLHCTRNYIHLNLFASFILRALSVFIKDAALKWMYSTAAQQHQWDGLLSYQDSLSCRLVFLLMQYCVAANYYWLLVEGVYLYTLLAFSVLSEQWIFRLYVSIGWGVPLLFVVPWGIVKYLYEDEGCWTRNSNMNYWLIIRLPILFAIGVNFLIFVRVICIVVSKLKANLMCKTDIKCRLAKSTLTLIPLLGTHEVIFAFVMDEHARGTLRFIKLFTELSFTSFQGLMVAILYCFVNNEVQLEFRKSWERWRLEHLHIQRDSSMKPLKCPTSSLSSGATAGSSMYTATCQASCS

## CCCCCCCCCCCCCCCC(=O)N[C@@H](CCC(=O)NCCCC[C@H](NC(=O)[C@H](CCCCN)NC(=O)[C@H](CO)NC(=O)[C@H](Cc1ccc(O)cc1)NC(=O)[C@H](CC(=O)O)NC(=O)[C@H](CO)NC(=O)[C@@H](NC(=O)[C@H](Cc1ccccc1)NC(=O)[C@@H](NC(=O)CNC(=O)[C@H](CCC(N)=O)NC(=O)[C@H](CO)NC(=O)[C@@H](N)Cc1c[nH]cn1)[C@@H](C)O)[C@@H](C)O)C(=O)N[C@@H](CC(C)C)C(=O)N[C@@H](CC(=O)O)C(=O)N[C@@H](CO)C(=O)N[C@@H](CCC(=O)O)C(=O)N[C@@H](CCCNC(=N)N)C(=O)N[C@@H](C)C(=O)N[C@@H](CCCNC(=N)N)C(=O)N[C@@H](CC(=O)O)C(=O)N[C@@H](Cc1ccccc1)C(=O)N[C@H](C(=O)N[C@@H](C)C(=O)N[C@@H](Cc1c[nH]c2ccccc12)C(=O)N[C@@H](CC(C)C)C(=O)N[C@H](C(=O)N[C@@H](C)C(=O)NCC(=O)NCC(N)=O)C(C)C)C(C)C)C(=O)O [Peptide G730] (H-HSQGTFTSDYSKK([γGlu-Palmitoyl])LDSERARDFVAWLVAGG-NH2; N-terminus assumed)
[1]; EC50 at the GLP1R at 0% HSA, calculated from variation in cAMP generation with HSA concentration
  EC50: 0.007 nM
[1]; Human GLP1R EC50, 4.4% human serum albumin
  EC50: 0.455 nM
[2]; Table 2, C-terminal amide peptides, read-out: Human GLP1R EC50
  EC50: 0.018 nM
[2]; Table 4, read-out: hGLP1R EC50
  EC50: 0.0395 nM

## L-Histidyl-L-seryl-L-glutaminylglycyl-L-threonyl-L-phenylalanyl-L-threonyl-L-seryl-L-alpha-aspartyl-(N6-[N-(1-oxohexadecyl)-L-gamma-gutamyl])L-lysy-L-sery-L-alpha-glutamyl-L-tyrosyl-L-leucyl-L-alpha-aspartyl-L-seryl-L-alpha-glutamyl-L-arginyl-L-alanyl-L-arginyl-L-alpha-L-aspartyl-L-phenylalanyl-L-valyl-L-alanyl-L-tryptophyl-L-leucyl-L-alpha-glutamyl-L-alanylglycylglycine [Peptide G933]
[3]; Cohort 1, 100 ug, n = 6
  Fasting Glucose (change): -28.00 mg/dL
  Weight (change): -1.1 kg
[3]; Cohort 2, 150 ug, n = 6
  Fasting Glucose (change): -17.90 mg/dL
  Weight (change): -0.5 kg
[3]; Cohort 3 (up to 200 μg, 15 days)
  weight differential: more than 2 kg
[3]; Cohort 3, 200 ug, n = 6
  Fasting Glucose (change): -43.20 mg/dL
  Weight (change): -2.4 kg
[3]; Cohort 4, 200 ug, n = 25
  Fasting Glucose (change): -32.62 mg/dL
  Weight (change): -2.11 kg
[3]; Cohort 4, after 41 days
  patients who lost at least 2% of their weight: 84%
  patients who lost at least 5 kg: 44%
  percent of weight lost: about 4.18%
  weight lost: about 3.83 kg
[3]; Cohort 4, after 41 days of treatment
  HbA1c reduction: 0.92%
[3]; [5]
  percent weight loss difference between G933 and placebo: 2.47%
  weight loss difference between G933 and placebo: 2.12 kg
[3]; Cohort 4, up to 200 μg, 90% C.I. −47.1, −29.0
  mean reduction in glucose AUC from baseline (day 1) to day 41: 38.5%
[3]; Cohort 4, 95% CI 7.2, 33.9, p=0.004
  mean relative reduction in liver fat percentage from baseline versus placebo: 20.5%
[3]; Cohort 4, (−0.24, −0.03), p=0.01
  reduction in liver volume compared to placebo: 0.14 L
[3]; Cohort 4, baseline mean […]
  mean HbA1c on day 42: 6.3%
[3]; Cohort 5 (up to 300 μg, 22 days), 90% C.I. −49.9, −33.5
  glucose AUC reduction: 41.7%
[3]; Cohort 5, 300 ug, n = 12
  Fasting Glucose (change): -24.40 mg/dL
  Weight (change): -2.11 kg
[3]; Cohort 5, after 22 days
  weight loss difference versus placebo: 2.11 kg
  weight lost: about 3.09 kg
[3]; Cohort 6 (up to 300 μg, 17 days), C.I. −43.3, −28.3
  glucose AUC reduction: 35.8%
[3]; Cohort 6, 300 ug, n = 12
  Fasting Glucose (change): -36.94 mg/dL
  Weight (change): -1.88 kg
[3]; Cohort 6, after 17 days
  weight loss difference versus placebo: 1.88 kg
  weight lost: about 2.23 kg
[3]; Cohorts 1-3 (100-200 μg QD)
  mixed-meal test glucose AUC reduction: > 40%
[3]; Cohorts 1-3, dose dependent trend
  weight loss: up to 2 kg
[4]; 5 nmol/kg sc twice daily 14 days
  BW day 14 (% change of vehicle mean): −11%
[4]; 5 nmol/kg sc twice daily
  HOMA: 3.31
[4]; 10 nmol/kg sc twice daily 14 days
  BW day 14 (% change of vehicle mean): −19%
[4]; 10 nmol/kg sc twice daily
  HOMA: 1.98
[4]; DIO mice, FIGS. 5-8
  body weight over the 14 day dosing period: dose dependent and continuous weight loss
[4]; dose in Table 17: 5 nmol/kg
  BeHy: 593.56 µmol/L
  FGF21: 4459 pg/mL
  Hepatic TG: 14.7 g TB/100 g tissue
  Plasma Cholesterol: 2.32 mM
  Plasma TG: 0.16 mM
[4]; dose in Table 17: 50 nmol/kg
  BeHy: 673.08 µmol/L
  FGF21: 2582 pg/mL
  Hepatic TG: 13.3 g TB/100 g tissue
  Plasma Cholesterol: 2.88 mM
  Plasma TG: 0.39 mM
